Source: publication PMC8533149 (Biomolecules, 2021)
Read-outs that look alike come from different tables or passages of the source.

Tests used:
[1] = test system: Telo (DNA, G4) AGGGTTAGGGTTAGGGTTAGGG; assay: FRET melting; details: 100 mM KCl; 10 mM lithium cacodylate pH 7.4, 0.25% DMSO; 12.5 μM compound, 0.25 μM DNA (50:1)
[2] = test system: dsDNA (DNA, duplex) CTATAGCGCGCTATAG; assay: FRET melting; details: 100 mM KCl; 10 mM lithium cacodylate pH 7.4, 0.25% DMSO; 12.5 μM compound, 0.25 μM DNA (50:1)
[3] = test system: HIV-1 LTR-III G-quadruplex (FAM/TAMRA-labeled LTR-III); assay: FRET melting assay, LTR-III G4; assay type: binding; details: for LTR III stabilization: Figure 7, stabilization group; for LTR-III (average): Table S12, average stabilization
How it was run: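 Melting is followed by FAM fluorescence (ex 495/em 520 nm) while heating at 1 °C/min from 30 to 95 °C. Labelled ODN at 0.5 μM, pre-annealed in 10 mM Li cacodylate, 100 mM KCl, pH 7.4, mixed with ligand at 50:1 (25 μM), or 20:1 and 2:1 for titration. ΔTm is relative to the 0.25% DMSO buffer control.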

[4] = test system: human telomeric sequence Telo G4; assay: FRET melting assay, Telo; assay type: binding; details: 50:1
Description: (§1) To evaluate stabilizing properties of the ligands in a complex with oligodeoxyribonucleotides (ODNs) melting with fluorescence registration was used. ODN (0.5 μM) (Table 1), labeled with 6-carboxyfluorescein (FAM) and 6-carboxytetramethylrhodamine (TAMRA) at the 5′- and 3′-end, respectively, were folded in lithium cacodylate buffer (10 mM, pH 7.4) with 100 mM KCl by heating at 95 °C for 5 min and gradually cooling to r.t. GFP chromophore analogs (5 mM solution in DMSO) were diluted with the same buffer to the final concentration of 25 μM and mixed with an equal volume of 0.5 μM ODN solution resulting in a molar ratio of 50:1 (total volume was 50 μL). For the titration experiments molar ratios of 20:1 and 2:1 were used. Samples were analyzed using DTprime qPCR system (DNA-Technology LLC, Moscow, Russia). Fluorescence was registered by detection of FAM emission at 520 nm upon excitation at 495 nm in the temperature range of 30–95 °C with 1 °C/min gradient. Tm was determined using the instrument software and ΔTm was calculated relative to ODN Tm in a buffer solution containing 0.25% (v/v) DMSO. The primary and secondary screening were carried out in singlicate and triplicate, respectively.
(§2) Initially we screened an in-house library of 440 synthetic GFP chromophore analogues for interaction with HIV-1 LTR-III sequence, which modulates HIV-1 promoter activity, using high-throughput screening (HTS) FRET melting assay (Table S1). […] We selected 11 compounds (Figure 2A), displaying stabilization in the range of 2.4–7.8 °C, and evaluated their ability to stabilize other G4-forming sequences, including human telomeric sequence Telo (one of the most common G4 structures in the human genome, having two conformations, Hybrid-1 and Hybrid-2 [36]) and model G4 […] (the G-rich Pu39 region of the P1 promoter of the oncogene BCL-2, an apoptosis regulator [37] with polymorphic conformational structure), as well as double stranded oligonucleotide (duplex) control sequence (Figure 2B, Table S2).

[5] = test system: Pu39 G4 (G-rich region of the P1 promoter of BCL-2); assay: FRET melting assay, Pu39; assay type: binding, human; details: 50:1
Description: as §1, §2

[6] = test system: dsDNA (double stranded control sequence); assay: FRET melting assay, duplex control; assay type: binding; details: 50:1
Description: as §1, §2

Cytotoxicity test = assay type: cell-based; details: human, MT4 cells (human T cell leukemia), Figure 7
Description: (§3) Green monkey kidney (Vero, Beach, FL, USA) cell line was maintained in 2 × Eagle MEM (“Chumakov FSC R&D IBP RAS”, Russia) with 5% FBS with L-glutamine, penicillin and streptomycin. […] HIV-1 strain NL4-3 was obtained via cell transfection with pNL4-3 3 (ARP2006, NIBSC, Potters Bar, UK).
(§4) MT4 cell suspensions were added to the wells with compound dilutions and DMSO control (approx. 2 × 10^4 cells per well). […] All experimental procedures were performed in two replicates and were repeated two to four times. Mean and SD were calculated with OriginPro 8 (OriginLab, St. Louis, MO, USA).

MT4 cells = assay: Cytotoxicity test; assay type: cell-based; details: Table S12, nine days
Description: as §3, §4

[7] = test system: HIV-1 strain NL4-3 in MT4 cells; assay: Cytopathic effect inhibition test; assay type: cell-based; details: HIV-1 NL4-3, MT4 cells
Description: Human T cell leukemia (MT4) cell line was maintained in RPMI-1640 (“Chumakov FSC R&D IBP RAS”, Moscow, Russia) with 10% of fetal bovine serum (FBS, Invitrogen, Waltham, MA, USA), L-glutamine and gentamicin. Green monkey kidney (Vero, Beach, FL, USA) cell line was maintained in 2 × Eagle MEM (“Chumakov FSC R&D IBP RAS”, Russia) with 5% FBS with L-glutamine, penicillin and streptomycin. Cell cultures were incubated in the present of 5% CO2 at 37 °C. HIV-1 strain NL4-3 was obtained via cell transfection with pNL4-3 3 (ARP2006, NIBSC, Potters Bar, UK).
Eight two-fold dilutions of stock solutions of the compounds in two replicates were prepared in RPMI-1640 (“Chumakov FSC R&D IBP RAS”, Russia). Compound dilutions were mixed with equal volumes of the virus suspension containing 100 CCID50 (50% tissue culture infectious dose). Control cells were treated with the same sequential concentrations of DMSO as in compound dilutions. Then, the MT4 cell suspension (approx. 2 × 10^4 cells per well) in RPMI-1640 containing 10% FBS (Invitrogen, South America) was added to experimental mixtures. A final concentration series started from 25 μM. Each experiment contained virus dose titration in the inoculate to assure the acceptable dose-range. After a nine-day incubation (5% CO2, at 37 °C), cytopathic effect (CPE) was visually accessed via microscope. EC50 values were calculated according to the Karber method. All experimental procedures were performed in two replicates and were repeated two to four times. Mean and SD were calculated with OriginPro 8 (OriginLab, St. Louis, MO, USA).

LTR-III G4 = assay: NMR titration of LTR-III; assay type: binding, HIV-1; details: for interaction with LTR-III by NMR titration (selective signal attenuation): 50 μM LTR-III, 1D 1H NMR
Description: All NMR spectra were acquired on a Bruker Avance III 800 MHz spectrometer equipped with a cryoprobe. Titration of 50 μM LTR-III samples (70 mM KCl, 20 mM potassium phosphate buffer, pH 7.0) with 2 mM ZS260.1 and N979 ligands dissolved in DMSO was performed. 1D ^1H NMR spectra were used to track the changes during titration. ^1H-^13C HSQC and HMBC at 35 °C were used to transfer the assignment of H6/C6 and H8/C8 signals from previously obtained assignment. To identify the LTR-III residues that are most influenced by addition of ZS260.1 ligand, the intensities of cross-peaks in the ^1H-^13C HSQC spectra measured with and without added ligand were compared. The H6/C6 and H8/C8 cross-peak intensities were measured at molar ratio of LTR-III to ZS260.1 of 5:1 (35 °C, 0.5 mM LTR-III G4).
The ligand binding processes are probably in intermediate to fast regime on the NMR timescale. Therefore, the resonances of residues that are close to the ligand binding site (s) become broadened and attenuated (intermediate exchange regime).
To determine affinity of the compound ZS260.1 to LTR-III G4 we analyzed changes in H8 chemical shift of G8 residue in 1D ^1H NMR spectra. […] The titration data were successfully approximated by simple chemical reaction A + B = AB, that implies one to one stoichiometry of binding that is consistent with literature data (Suppl. S8). The dissociation constant for the LTR-III/ZS260.1 complex (Kd) was on the order of 3 μM.

[8] = Table S3 primary screening of newly synthesized analogs, 50:1
[9] = Table S5, newly synthesized compounds
[10] = Human immunodeficiency virus 1, NL43, 216 h, Table S12, CPE, nine-day incubation, read-out: EC50
[11] = Human immunodeficiency virus 1, NL43, Figure 7, read-out: Antiviral activity EC50 (HIV)
[12] = Table S12, CPE, nine-day incubation
[13] = Table S1 primary screening, ligand:ODN 50:1, singlicate
[14] = Table S2, primary screening lead compounds

| SMILES | LTR III stabilization [3] [°C] | LTR-III ΔTm [3, 8] [°C] | LTR-III (average) [3] | ΔTm Telo [4, 9] [°C] | ΔTm Pu39 [5, 9] [°C] | ΔTm Duplex [6, 9] [°C] | CC50 at 9 days (Cytotoxicity test) [µM] | СС50 (MT4) (MT4 cells) [µM] | EC50 [7, 10] [µM] | EC50 [7, 11] [µM] | EC50 [7, 12] | LTR-III ΔTm [3, 13] [°C] | ΔTm Telo [4, 14] [°C] | ΔTm Pu39 [5, 14] [°C] | ΔTm Duplex [6, 14] [°C] | further results |
| --- | --- | --- | --- | --- | --- | --- | --- | --- | --- | --- | --- | --- | --- | --- | --- | --- |
| COc1ccc(/C=C/C=C/C2=NC(=C\c3ccc(O)cc3OC)/C(=O)N2C)cc1 | – | – | – | – | – | – | – | – | – | – | – | – | – | – | – | ΔTm [1]: 3.9±0.1 °C; ΔTm [2]: -0.1±0.04 °C |
| COc1cc(/C=C2N=C(/C=C/C=C/c3ccc(N(C)C)cc3)N(C)C\2=O)cc(OC)c1O [N1195] | > 3 | 4.2 | 4,2 °C | 0.9±0.3 | 1.8±0.1 | 0.1±0.1 | 6 ± 3 | 5.9 ± 2.6 | 3.78 ± 0.91 | 3.8 ± 0.9 | – | – | – | – | – | – |
| COc1c(O)ccc(/C=C2N=C(/C=C/c3cc(Cl)nc(Cl)c3)N(C)C\2=O)c1OC [N1198] | > 3 | 6.5 | 6,5 °C | 0.9±0.2 | 0.1±0.1 | 0±0.1 | 3 ± 1 | 2.8 ± 1.1 | 1.78 ± 0.38 | 1.8 ± 0.4 | micromolar range | – | – | – | – | – |
| COc1c(O)ccc(/C=C2N=C(/C=C/c3cc(Br)c(O)c(Br)c3)N(C)C\2=O)c1OC [N1199] | > 3 | 4.3 | 4,3 °C | 0.9±0.1 | 0±0.2 | 0±0.1 | 5 ± 3 | 4.6 ± 2.5 | 3.3 ± 1.1 | 3 ± 1 | – | – | – | – | – | – |
| COc1cc(/C=C2\N=C(C)N(C)C2=O)cc(OC)c1O [N 979] | – | – | – | – | – | – | – | – | – | – | – | -0.2 | – | – | – | LTR-III ΔTm ([3]; Table S1 primary screening, ligand:ODN 50:1, singlicate, listed as N979): non-stabilizing; interaction with LTR-III by NMR titration (selective signal attenuation) (LTR-III G4): interact with the LTR-III molecule |
| COc1ccc(/C=C/C2=NC(=C\c3ccc(O)cc3OC)/C(=O)N2C)cc1 [N 1052] | > 3 | – | 4,5 °C | – | – | – | 7 ± 3 | 6.6 ± 3.1 | – | – | – | 4.6 | 3.9±0.1 | 2.1±0.2 | -0.1±0.04 | – |
| COc1c(O)ccc(/C=C2N=C(/C=C/c3ccncc3)N(C)C\2=O)c1OC [N 1068.2] | > 3 | – | 6,9 °C | – | – | – | 3 ± 1 | 3.0 ± 1.0 | 1.78 ± 0.38 | 1.8 ± 0.4 | micromolar range | 7.1 | 1.2±0.2 | 0±0.4 | 0.1±0.04 | – |
| COc1cc(/C=C2N=C(/C=C/c3cc(Br)c(O)c(Br)c3)N(C)C\2=O)cc(OC)c1O [ZS 260.1] | > 3 | – | 8,35 °C | – | – | – | 4.1 ± 0.6 | 4.1 ± 0.6 | 3.78 ± 0.91 | 3.8 ± 0.9 | micromolar range | 7.8 | 0.7±0.2 | 0.9±0.6 | 0.1±0.09 | interaction with LTR-III by NMR titration (selective signal attenuation) (LTR-III G4): interact with the LTR-III molecule; Kd (LTR-III G4; H8 chemical shift of G8 in 1D 1H NMR, 1:1 binding model, read-out: dissociation constant for the LTR-III/ZS260.1 complex (Kd)): ~3 µM; ΔTm [1]: 0.7±0.2 °C; ΔTm [2]: 0.1±0.09 °C |
| COc1cc(O)ccc1/C=C1N=C(/C=C/c2ccnc3ccccc23)N(C)C\1=O [ZS 331] | > 3 | – | 3,7 °C | – | – | – | 1.2 ± 0.6 | 1.17 ± 0.55 | – | – | – | – | 2.5±0.3 | 0.8±0.2 | -0.2±0.1 | ΔTm LTR III ([3]; Table S2, primary screening lead compounds, 50:1): 3.3±0.2 °C |
